Experimental data taken from paper PMC6896172, “Successful Targeting of the Warburg Effect in Prostate Cancer by Glucose-Conjugated 1,4-Naphthoquinones” (Cancers, 2019).

System: 22Rv1 cells
Assay: Global proteome analysis (LC-MS/MS, DIA) of differentially expressed proteins
Assay type: cell-based, human
Method: 22Rv1 cells were seeded in T75 culture bottles (4 × 10^6 cells/bottle in 20 mL/bottle), treated for 48 h with the 5 µM of compound 11 or vehicle (DMSO), harvested by scratching, washed twice with ice-cold PBS and flash-frozen. Cells were lysed and sonicated. The protein extracts were then heat-denaturated, reduced, alkylated and digested by trypsin. Peptides were chromatographically separated using full recovery autosampler vials and a nano-UPLC system (Acquity, Waters Corporation, Milford, MS, USA), coupled via electrospray ionization (ESI) to a tandem mass spectrometer equipped with a quadrupole and an orbitrap (QExactive, Thermo Fisher Scientific, Bremen, Germany), using MS/MS mode in data dependent acquisition (DDA) and data independent acquisition (DIA). The peptides, analyzed with DDA-LC-MS/MS, were identified with the search engine Sequest, integrated in the Proteome Discoverer software version 2.0 (Thermo Fischer Scientific) using the human Uniprot protein database (EMBL; Hinxton Cambridge, UK, release December 2018). […] For the details of sample preparation and proceeding, data acquisition and analysis see the Supplementary information. […]
serum (FBS, Invitrogen) and 1% penicillin/streptomycin (Invitrogen)). […]
Cell lines were lysed in 100 mM triethylammonium bicarbonate and 1% w/v sodium deoxycholate buffer followed by probe sonication to destroy polynucleotides and heat induce protein denaturing at 99 °C for 5 min. Protein concentrations were estimated with a bicinchonic acid (BCA) protein assay (Thermo Fisher Scientific, Bremen, Germany). 20 µg of protein were reduced in presence of 10 mM dithiotreithol (Sigma Aldrich) for 30 min at 60 °C followed by cysteine alkylation with 20 mM iodo acetamide (Sigma Aldrich) for 30 min at 37 °C in the dark and enzymatic degradation with sequencing grade trypsin (Promega) over night at 37 °C. Digestion was quenched with 1% formic acid (FA), precipitated sodium deoxycholate removed by centrifugation for 5 min at 14,000 g and the supernatant was dried in a vacuum centrifuge.
LC-MS/MS in Data Dependent and Data Independent Mode
Samples were resuspended in 0.1% FA and transferred into a full recovery autosampler vial (Waters). Chromatographic separation was achieved on a nano -UPLC system (Acquity, Waters Corporation, Milford, MS, USA) with a two-buffer-system (buffer A: 0.1% FA in water, buffer B:
0.1% FA in Acetonitrile (ACN), both at pH = 3). Attached to the UPLC was a reversed -phase peptide trapping column (Symmetry C18, 180 µm × 20 mm, 100 Å pore size, 5 µm particle size) for desalting, followed by a reversed-phase capillary separation of the tryptic peptides (BEH C18; 75 µm × 200 mm, 130 Å pore size, 1.7 µm particle size), using a 60 min gradient with increasing ACN concentration from 2–30% ACN. The eluting peptides were analyzed on a quadrupole-orbitrap mass spectrometer (QExactive, Thermo Fisher Scientific, Bremen, Germany) in data dependent acquisition (DDA) and data independent acquisition (DIA) for quantification.
In DDA mode, one replicate of each cell line was randomly chosen and 1 µg per sample was used per LC-MS/MS run to build a reference spectral library used for data extraction of samples acquired in DIA mode. For DDA, the 12 most intense ions per precursor scan (1 × 10 6 ions, 70,000 Resolution, 120 ms fill time) were analyzed by MS/MS (HCD at 25 normalized collision energy, 1 × 105 ions, 17,500 Resolution, 50 ms fill time) in a range of 400–1300 m/z. A dynamic precursor exclusion of 20 s was used. For DIA, 1 µg of each sample was analyzed using a 30 sequential 20 Da fixed window method covering the mass range from 400 –1000 m/z. Per cycle, 2 precursor scans (1 × […]
28 normalized collision energy, 1 × 106 ions, 17,500 Resolution, 50 ms fill time) were performed.
After the first precursor scan, 15 MS/MS scans were performed covering the precursor mass range from 400–700 m/z followed by the second precursor scan and another 15 MS/MS scans ranging from […]
LC-MS/MS Data Processing and Analysis […]

CC1(C)OC2OC(C(O)COC3=CC(=O)c4cccc(O)c4C3=O)C(O)C2O1 (stereo not shown) [Compound 11]
Fold change (treated / control) (protein ARID2_HUMAN (Q68CP9)): 0.5698 | Fold change (treated / control) (protein BAZ1B_HUMAN (Q9UIG0)): 0.5909 | Fold change (treated / control) (protein BCAM_HUMAN (P50895)): 0.2614 | Fold change (treated / control) (protein BRD1_HUMAN (O95696)): 0.5595 | Fold change (treated / control) (protein CBX5_HUMAN (P45973)): 0.6078 | Fold change (treated / control) (protein CCD86_HUMAN (Q9H6F5)): 0.6454 | Fold change (treated / control) (protein CEBPZ_HUMAN (Q03701)): 0.6117 | Fold change (treated / control) (protein CHCH5_HUMAN (Q9BSY4)): 0.3153 | Fold change (treated / control) (protein CISD1_HUMAN (Q9NZ45)): 0.6534 | Fold change (treated / control) (protein CLUS_HUMAN (P10909)): 0.6547 | Fold change (treated / control) (protein CMTD1_HUMAN (Q86VU5)): 0.6695 | Fold change (treated / control) (protein COASY_HUMAN (Q13057)): 0.6716 | Fold change (treated / control) (protein COQ5_HUMAN (Q5HYK3)): 0.6569 | Fold change (treated / control) (protein CPSF7_HUMAN (Q8N684)): 0.5898 | Fold change (treated / control) (protein CRIP2_HUMAN (P52943)): 0.5784 | Fold change (treated / control) (protein CX6B1_HUMAN (P14854)): 0.5635 | Fold change (treated / control) (protein DDX21_HUMAN (Q9NR30)): 0.6203 | Fold change (treated / control) (protein DDX50_HUMAN (Q9BQ39)): 0.5638 | Fold change (treated / control) (protein DDX52_HUMAN (Q9Y2R4)): 0.5706 | Fold change (treated / control) (protein DESP_HUMAN (P15924)): 0.5753 | Fold change (treated / control) (protein DHX30_HUMAN (Q7L2E3)): 0.6273 | Fold change (treated / control) (protein DPOE3_HUMAN (Q9NRF9)): 0.6062 | Fold change (treated / control) (protein E2AK2_HUMAN (P19525)): 0.6134 | Fold change (treated / control) (protein EDF1_HUMAN (O60869)): 0.6154 | Fold change (treated / control) (protein EFTU_HUMAN (P49411)): 0.6185 | Fold change (treated / control) (protein ELOV5_HUMAN (Q9NYP7)): 0.5895 | Fold change (treated / control) (protein FAKD2_HUMAN (Q9NYY8)): 0.6444 | Fold change (treated / control) (protein FKB10_HUMAN (Q96AY3)): 0.625 | Fold change (treated / control) (protein FKBP8_HUMAN (Q14318)): 0.6712 | Fold change (treated / control) (protein GCN1_HUMAN (Q92616)): 0.6676 | Fold change (treated / control) (protein GRSF1_HUMAN (Q12849)): 0.6529 | Fold change (treated / control) (protein H2AY_HUMAN (O75367)): 0.6499 | Fold change (treated / control) (protein HSPB6_HUMAN (O14558)): 0.6349 | Fold change (treated / control) (protein IF4A1_HUMAN (P60842)): 0.6202 | Fold change (treated / control) (protein IMA1_HUMAN (P52292)): 0.5682 | Fold change (treated / control) (protein IQEC2_HUMAN (Q5JU85)): 0.6175 | Fold change (treated / control) (protein K2013_HUMAN (Q8IYS2)): 0.3342 | Fold change (treated / control) (protein LRWD1_HUMAN (Q9UFC0)): 0.5648 | Fold change (treated / control) (protein MAP2_HUMAN (P50579)): 0.6543 | Fold change (treated / control) (protein MCM3_HUMAN (P25205)): 0.6329 | Fold change (treated / control) (protein MCM4_HUMAN (P33991)): 0.5634 | Fold change (treated / control) (protein MCM5_HUMAN (P33992)): 0.5949 | Fold change (treated / control) (protein MCM6_HUMAN (Q14566)): 0.6119 | Fold change (treated / control) (protein MCM7_HUMAN (P33993)): 0.5855 | Fold change (treated / control) (protein MIPEP_HUMAN (Q99797)): 0.6023 | Fold change (treated / control) (protein MTA1_HUMAN (Q13330)): 0.5631 | Fold change (treated / control) (protein MTA2_HUMAN (O94776)): 0.5939 | Fold change (treated / control) (protein MYOME_HUMAN (Q5VU43)): 0.6576 | Fold change (treated / control) (protein NDUA3_HUMAN (O95167)): 0.3195 | Fold change (treated / control) (protein NDUAC_HUMAN (Q9UI09)): 0.6076 | Fold change (treated / control) (protein NDUV1_HUMAN (P49821)): 0.6332 | Fold change (treated / control) (protein NUDC_HUMAN (Q9Y266)): 0.6476 | Fold change (treated / control) (protein P4HTM_HUMAN (Q9NXG6)): 0.3114 | Fold change (treated / control) (protein PCNA_HUMAN (P12004)): 0.6578 | Fold change (treated / control) (protein PDS5A_HUMAN (Q29RF7)): 0.5949 | Fold change (treated / control) (protein PTMA_HUMAN (P06454)): 0.5745 | Fold change (treated / control) (protein RFC2_HUMAN (P35250)): 0.5826 | Fold change (treated / control) (protein RFC3_HUMAN (P40938)): 0.567 | Fold change (treated / control) (protein RFC4_HUMAN (P35249)): 0.5722 | Fold change (treated / control) (protein RFC5_HUMAN (P40937)): 0.6148 | Fold change (treated / control) (protein RL1D1_HUMAN (O76021)): 0.6228 | Fold change (treated / control) (protein RL4_HUMAN (P36578)): 0.563 | Fold change (treated / control) (protein RL10A_HUMAN (P62906)): 0.5923 | Fold change (treated / control) (protein RL13_HUMAN (P26373)): 0.6224 | Fold change (treated / control) (protein RL15_HUMAN (P61313)): 0.6202 | Fold change (treated / control) (protein RL19_HUMAN (P84098)): 0.3072 | Fold change (treated / control) (protein RL23A_HUMAN (P62750)): 0.5699 | Fold change (treated / control) (protein RL23_HUMAN (P62829)): 0.6468 | Fold change (treated / control) (protein RL27A_HUMAN (P46776)): 0.6191 | Fold change (treated / control) (protein RL34_HUMAN (P49207)): 0.2863 | Fold change (treated / control) (protein RL36_HUMAN (Q9Y3U8)): 0.6291 | Fold change (treated / control) (protein RM11_HUMAN (Q9Y3B7)): 0.6501 | Fold change (treated / control) (protein RM45_HUMAN (Q9BRJ2)): 0.6189 | Fold change (treated / control) (protein RM53_HUMAN (Q96EL3)): 0.5657 | Fold change (treated / control) (protein RM54_HUMAN (Q6P161)): 0.6079 | Fold change (treated / control) (protein RPA34_HUMAN (O15446)): 0.6508 | Fold change (treated / control) (protein RPAB5_HUMAN (P62875)): 0.5655 | Fold change (treated / control) (protein RS2_HUMAN (P15880)): 0.6402 | Fold change (treated / control) (protein RS6_HUMAN (P62753)): 0.6108 | Fold change (treated / control) (protein RS9_HUMAN (P46781)): 0.6218 | Fold change (treated / control) (protein S27A3_HUMAN (Q5K4L6)): 0.6711 | Fold change (treated / control) (protein SERC1_HUMAN (Q9NRX5)): 0.3307 | Fold change (treated / control) (protein SIGIR_HUMAN (Q6IA17)): 0.5907 | Fold change (treated / control) (protein SMCA5_HUMAN (O60264)): 0.6602 | Fold change (treated / control) (protein SMRC1_HUMAN (Q92922)): 0.6541 | Fold change (treated / control) (protein SPB1_HUMAN (Q8IY81)): 0.6134 | Fold change (treated / control) (protein STRBP_HUMAN (Q96SI9)): 0.6608 | Fold change (treated / control) (protein SUOX_HUMAN (P51687)): 0.6055 | Fold change (treated / control) (protein TF3C1_HUMAN (Q12789)): 0.6535 | Fold change (treated / control) (protein TF3C5_HUMAN (Q9Y5Q8)): 0.6483 | Fold change (treated / control) (protein TIM8B_HUMAN (Q9Y5J9)): 0.3123 | Fold change (treated / control) (protein UBL5_HUMAN (Q9BZL1)): 0.5618 | Fold change (treated / control) (protein UCRI_HUMAN (P47985)): 0.5774 | Fold change (treated / control) (protein UTP18_HUMAN (Q9Y5J1)): 0.63 | Fold change (treated / control) (protein VIGLN_HUMAN (Q00341)): 0.6343 | Fold change (treated / control) (protein XRN2_HUMAN (Q9H0D6)): 0.664 | Fold change (treated / control) (protein YBOX1_HUMAN (P67809)): 0.6605 | Fold change (treated / control) (protein ZN326_HUMAN (Q5BKZ1)): 0.6081 | Fold change (treated / control) (protein ZN428_HUMAN (Q96B54)): 0.5792 | Fold change (treated / control) (protein ZN595_HUMAN (Q8IYB9)): 0.6231
